What is called inhibition is the share of the control response that was lost under treatment.

Some results are limits rather than exact numbers.

The text below walks through data of publication PMC5769128, “Human UDP-Glucuronosyltransferase 2B4 and 2B7 Are Responsible for Naftopidil Glucuronidation in Vitro” (Frontiers in Pharmacology, 2018).

One series deals with T1, UGT1A1 (Homo sapiens, UniProt P22309).
T1 construct: purchased BD Gentest
T1 sequence (P22309 26-533): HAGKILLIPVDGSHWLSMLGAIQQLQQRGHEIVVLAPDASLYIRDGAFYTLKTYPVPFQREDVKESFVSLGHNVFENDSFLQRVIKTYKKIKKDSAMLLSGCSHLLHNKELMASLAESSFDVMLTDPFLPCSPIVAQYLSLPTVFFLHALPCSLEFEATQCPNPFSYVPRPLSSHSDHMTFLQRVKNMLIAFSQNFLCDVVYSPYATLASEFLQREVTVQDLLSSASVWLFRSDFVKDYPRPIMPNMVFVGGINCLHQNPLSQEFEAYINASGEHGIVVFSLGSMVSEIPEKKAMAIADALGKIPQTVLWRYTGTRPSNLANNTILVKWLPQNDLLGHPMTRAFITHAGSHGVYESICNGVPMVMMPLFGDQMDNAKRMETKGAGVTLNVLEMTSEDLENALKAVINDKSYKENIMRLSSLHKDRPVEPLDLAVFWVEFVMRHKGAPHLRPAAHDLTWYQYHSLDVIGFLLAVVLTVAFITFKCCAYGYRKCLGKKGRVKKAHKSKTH
Put plainly: Inhibition screening of recombinant UGTs by NAF enantiomers, UGT1A1 (4-MU). Type of series: in vitro ADME. Particulars: recombinant UGT1A1, probe 4-MU, 10 μM NAF enantiomer, read-out: Inhibition of 4-MU-G formation. On the procedure:
(§1) The inhibition screening study was performed by investigating the 12 recombinant UGTs with 10 and 100 μM NAF enantiomer. […] 4-MU, as a non-specific substrate, was added to the other incubated samples. Instead of NAF enantiomers, the same volume of water was added to be the control sample. […] The formation of 4-MU-G and TFP-G produced from the 12 incubation system were analyzed by HPLC. The instrument parameters for the LC were as follows: system, Agilent 1260; Agilent Eclipse Plus C18 (2.1 mm × 50 mm, 1.8 μm, Santa Clara, CA, United States); mobile phase, methanol: 0.1% formic acid in water (0–3 min, 35:65; 3.1–4.5 min, 65:35; 4.6–5 min, 35:65); flow rate, 0.4 mL/min; column temperature, 25°C; and injection volume, 2 μL. The retention times of 4-MU, 4-MU-G, TFP, TFP-G, and MU (IS) were 1.5, 0.5, 2.2, 1.8, and 1.0 min, respectively.

Series [1] deals with T2, UGT2B7 (Homo sapiens, UniProt P16662).
T2 sequence (P16662 24-529): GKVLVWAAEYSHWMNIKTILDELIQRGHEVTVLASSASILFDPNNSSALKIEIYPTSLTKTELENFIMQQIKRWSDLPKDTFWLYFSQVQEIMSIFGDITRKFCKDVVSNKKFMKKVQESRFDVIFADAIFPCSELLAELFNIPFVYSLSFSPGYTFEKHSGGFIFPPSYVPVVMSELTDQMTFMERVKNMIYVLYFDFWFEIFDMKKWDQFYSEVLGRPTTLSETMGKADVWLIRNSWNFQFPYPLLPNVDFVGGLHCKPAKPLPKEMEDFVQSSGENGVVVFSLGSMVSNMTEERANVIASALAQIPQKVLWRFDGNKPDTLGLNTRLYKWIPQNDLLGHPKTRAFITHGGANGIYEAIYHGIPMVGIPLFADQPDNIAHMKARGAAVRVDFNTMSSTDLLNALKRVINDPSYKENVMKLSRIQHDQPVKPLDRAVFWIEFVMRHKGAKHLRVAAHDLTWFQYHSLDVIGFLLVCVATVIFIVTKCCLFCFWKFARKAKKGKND
Put plainly: Inhibition screening of recombinant UGTs by NAF enantiomers, UGT2B7 (4-MU). The format is in vitro ADME. Details: purchased BD Gentest. To be noted: recombinant UGT2B7, probe 4-MU, read-out: Inhibition of 4-MU-G formation; for inhibition at 10 μM: 10 μM NAF enantiomer; for inhibition at 100 μM: 100 μM NAF enantiomer. On the procedure:
as §1

The next series addresses T3, recombinant human UGT2B4 (Homo sapiens, UniProt P06133).
T3 construct: purchased BD Gentest
T3 sequence (P06133 24-528): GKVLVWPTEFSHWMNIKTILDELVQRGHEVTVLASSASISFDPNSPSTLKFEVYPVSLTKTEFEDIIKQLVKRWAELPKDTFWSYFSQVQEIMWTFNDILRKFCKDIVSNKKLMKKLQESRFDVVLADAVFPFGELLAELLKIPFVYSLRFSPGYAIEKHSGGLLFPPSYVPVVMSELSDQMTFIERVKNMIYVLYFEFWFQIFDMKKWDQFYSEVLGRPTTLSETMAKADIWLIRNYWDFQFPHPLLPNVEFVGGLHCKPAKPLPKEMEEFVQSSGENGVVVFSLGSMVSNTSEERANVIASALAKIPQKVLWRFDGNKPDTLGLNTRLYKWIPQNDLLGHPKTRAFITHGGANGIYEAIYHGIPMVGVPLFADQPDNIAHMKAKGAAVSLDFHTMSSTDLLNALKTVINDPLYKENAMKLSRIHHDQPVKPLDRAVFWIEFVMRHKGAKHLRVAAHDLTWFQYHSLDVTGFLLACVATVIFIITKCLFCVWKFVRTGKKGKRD
Kind of series: Kinetics of NAF enantiomer glucuronidation by recombinant UGT2B4. The format is in vitro ADME. On the procedure: All glucuronidation assays were conducted in an incubation volume of 200 μL. Incubations were performed at 37°C in 50 mM Tris–HCl buffer (pH 7.5) with 10 mM magnesium chloride, 1 mg protein/mL of enzyme (microsomes and recombinant human UGTs), alamethicin (100 μg of alamethicin/mg microsomal protein), and NAF enantiomers (2.5–80 μM). The reaction was initiated by the addition of UDPGA (5 mM) and incubated at 37°C in a shaking water bath for 45 min. The reaction was terminated by the addition of 200 μL of ice-cold acetonitrile containing the IS (1 μM) and then centrifuged at 5000 ×g for 10 min at 4°C. The supernatant fraction was injected into the RRLC-MS/MS apparatus. Protein concentration (0.5–2 mg/mL) and incubation time (15–180 min) were optimized in preliminary studies to be within initial linear rate conditions.
Kinetic parameters were assessed in the HLM, RLM, HKM, RKM, and recombinant human UGTs (UGT2B4, 2B7, and 1A9).

The target in series [2] is T2, UGT2B7. To be noted: substrate zidovudine, enzyme UGT2B7.
Method: The inhibition of UGT1A9 and UGT2B7 by NAF enantiomer was investigated using the pooled HLM, UGT1A9, and UGT2B7 with concentrations similar to that of the NAF enantiomer. Propofol, which was used as the specific substrate of UGT1A9, was added to the incubation. […] Inhibitor constants (Ki value) were estimated by fitting the expressions for competitive, non-competitive, and mixed inhibition models with Dixon plots and Lineweaver–Burk plots.

For `COc1ccccc1N1CCN(C[C@H](O)COc2cccc3ccccc23)CC1` [S(-)-NAF], the inhibition at 10 μM on UGT1A1 is greater than 50%. Besides, on UGT2B7 [1], the inhibition at 10 μM is greater than 50% and the inhibition at 100 μM was greater than 75%. For the same compound, the Kinetics type result on recombinant human UGT2B4 is reported as “substrate inhibition model”. At UGT2B7 [2], the Inhibition type entry is listed as “Competitive”.

Take `COc1ccccc1N1CCN(C[C@@H](O)COc2cccc3ccccc23)CC1` [R(+)-NAF]: the inhibition at 10 μM at UGT1A1 and on UGT2B7 [1] was greater than 50% each time. In addition, on UGT2B7 [1], the inhibition at 100 μM is greater than 75%. Also, the Kinetics type result at recombinant human UGT2B4 is recorded as “substrate inhibition model”. The Inhibition type result at UGT2B7 [2] was “Competitive”.
